This note sets out measurements from patent US20220298146A1, “HETEROCYCLIC DERIVATIVE AND USE THEREOF” (Transthera Sciences (Nanjing), Inc., priority 2019, published 2022).

Usually IC50 stands for the concentration that inhibits the measured activity by half.

In test [1] the target is T1, H1299 cell pAxl (Homo sapiens, UniProt P30530).
T1 construct: endogenous in cells; host or cells: H1299
T1 sequence (P30530 26-894): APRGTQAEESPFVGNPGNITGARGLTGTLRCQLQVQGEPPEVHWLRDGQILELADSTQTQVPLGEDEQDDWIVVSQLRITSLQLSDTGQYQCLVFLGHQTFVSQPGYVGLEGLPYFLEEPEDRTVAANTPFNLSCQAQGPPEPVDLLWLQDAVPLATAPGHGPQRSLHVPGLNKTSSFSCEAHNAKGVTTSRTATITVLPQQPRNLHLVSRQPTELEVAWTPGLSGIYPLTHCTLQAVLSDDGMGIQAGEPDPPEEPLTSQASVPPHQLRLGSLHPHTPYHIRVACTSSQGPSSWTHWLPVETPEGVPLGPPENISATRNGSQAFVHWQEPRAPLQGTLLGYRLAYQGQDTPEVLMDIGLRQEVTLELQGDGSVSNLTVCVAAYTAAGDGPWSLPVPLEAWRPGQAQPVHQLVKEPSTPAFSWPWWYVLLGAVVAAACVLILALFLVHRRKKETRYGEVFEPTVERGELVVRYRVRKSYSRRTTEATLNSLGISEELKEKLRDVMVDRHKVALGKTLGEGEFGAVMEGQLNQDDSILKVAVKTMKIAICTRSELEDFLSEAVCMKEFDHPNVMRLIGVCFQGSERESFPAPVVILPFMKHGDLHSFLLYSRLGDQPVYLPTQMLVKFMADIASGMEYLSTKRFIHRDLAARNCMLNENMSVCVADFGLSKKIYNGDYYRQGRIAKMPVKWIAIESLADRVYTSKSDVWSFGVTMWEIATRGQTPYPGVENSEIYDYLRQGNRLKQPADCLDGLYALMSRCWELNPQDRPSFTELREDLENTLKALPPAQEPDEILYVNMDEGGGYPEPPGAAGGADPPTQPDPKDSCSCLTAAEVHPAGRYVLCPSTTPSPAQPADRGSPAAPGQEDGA
The test is described as follows: Inhibitory activity on cell pAxl (H1299 cells, hGAS6 stimulation, Western Blot). In kind it is cell-based. Particulars: hGAS6 200 ng/mL, tested at 1.1, 3.3, 10 and 30 nM, read-out: Inhibitory Activity on Cell pAx1, IC50. Here is the method:
H1299 is a non-small cell lung cancer cell.
Test samples: the compounds of the present invention, having structures shown above.
Test instruments: protein electrophoresis apparatus (made by Bio Rad), membrane transfer apparatus (made by Bio Rad), exposure apparatus (made by Tanon), and CO2 cell incubator (made by Thermo).
H1299 cells were inoculated into a 6-well plate (containing 10% FBS 1640 medium, 5×10^5 cells per well) and adherently cultivated at 37° C. and 5% CO2 for 18 h. The cells were starved overnight, and compounds with different concentrations were added. The compounds had final concentrations of 1.1 nM, 3.3 nM, 10 nM and 30 nM, with DMSO having a final concentration of 1‰. There was a medium containing 10‰ DMSO in the negative control well. The cells were incubated at 37° C. and 5% CO2 for 60 min, and then hGAS6 (R&D, final concentration: 200 ng/mL) was added to each well. The cells were further incubated for 60 min, and then the total protein of the cells was extracted for Western Blot experiment. IC50 values were calculated with GraphPad 5.0 software, and the inhibitory activities of the compounds on cell pAxl were detected.

Test [2] has as its target T2, Ron (h) (Homo sapiens, UniProt Q04912).
T2 construct: purchased
The test is described as follows: Enzymatic activity assay, Ron (h) kinase, [γ-33P]-ATP. The class given is biochemical. Particulars: 10 μM [γ-33P]-ATP, 40 min, room temperature; read-out: Inhibitory Activity on Ron (h) kinase, IC50. Here is the method:
(§1) Test samples: the compounds of the present invention, having structures and preparation methods shown above.
(§2) (1) Preparation of Compound Stock Solutions
(§3) Compounds were each dissolved in 100% DMSO to prepare stock solutions with a maximum concentration of 500 μM.
(§4) (2) Preparation of Compound Working Solutions
(§5) The compound stock solutions were diluted to final concentrations of 500 μM, 150 μM, 50 μM, 15 μM, 5 μM, 1.5 μM, 0.5 μM, 0.15 μM and 0.05 μM to prepare compound working solutions (50×).
(3) Preparation of Different Enzymatic Reaction Solutions
Ron (h) enzyme was dissolved in a mixture of 8 mM MOPS (pH 7.0), 0.2 mM EDTA and 250 μM GGMEDIYFEFMGGKKK to prepare an enzyme solution with a final concentration of 40.4 nM. An Mg/ATP mixture of 10 mM magnesium acetate and 10 μM [γ-^33P]-ATP was used to activate the enzymatic reaction.
(§6) The compound working solutions were added to a 384-well plate, with final concentrations of 10000 nM, 3000 nM, 1000 nM, 300 nM, 100 nM, 30 nM, 10 nM, 3 nM and 1 nM, respectively, and then different enzymatic reaction solutions prepared according to the above conditions were added. The reaction solutions were incubated at room temperature for 40 min, and then 0.5% phosphoric acid solutions were added to terminate the reaction. 10 μL of the reaction solution was added dropwise to P30 filter paper which was washed 4 times with a 0.425% phosphoric acid solution and once with methanol and then placed in a scintillation counter for detection. Gray analysis was performed on the results with Image J software, and IC50 values were calculated with GraphPad 5.0 software.

Test [3] has as its target T3, Axl (h) (Homo sapiens, UniProt P30530).
T3 construct: purchased
T3 sequence (P30530 26-894): T1 sequence (P30530 26-894)
The test is described as follows: Enzymatic activity assay, Axl (h) kinase, [γ-33P]-ATP. In kind it is biochemical. Particulars: 10 μM [γ-33P]-ATP, 40 min, room temperature; read-out: Inhibitory Activity on Ax1 (h), IC50. The protocol:
as §1, §2, §3, §4, §5
(3) Preparation of different enzymatic reaction solutions
Axl (h) enzyme was dissolved in a mixture of 8 mM MOPS (pH 7.0), 0.2 mM EDTA and 250 μM KKSRGDYMTMQIG to prepare an enzyme solution with a final concentration of 1.7 nM. An Mg/ATP mixture of 10 mM magnesium acetate and 10 μM [γ-^33P]-ATP was used to activate the enzymatic reaction.
as §6

For test [4], the target named is T4, LCK (h) (Homo sapiens, UniProt P06239).
T4 construct: purchased
T4 sequence (P06239 whole entry): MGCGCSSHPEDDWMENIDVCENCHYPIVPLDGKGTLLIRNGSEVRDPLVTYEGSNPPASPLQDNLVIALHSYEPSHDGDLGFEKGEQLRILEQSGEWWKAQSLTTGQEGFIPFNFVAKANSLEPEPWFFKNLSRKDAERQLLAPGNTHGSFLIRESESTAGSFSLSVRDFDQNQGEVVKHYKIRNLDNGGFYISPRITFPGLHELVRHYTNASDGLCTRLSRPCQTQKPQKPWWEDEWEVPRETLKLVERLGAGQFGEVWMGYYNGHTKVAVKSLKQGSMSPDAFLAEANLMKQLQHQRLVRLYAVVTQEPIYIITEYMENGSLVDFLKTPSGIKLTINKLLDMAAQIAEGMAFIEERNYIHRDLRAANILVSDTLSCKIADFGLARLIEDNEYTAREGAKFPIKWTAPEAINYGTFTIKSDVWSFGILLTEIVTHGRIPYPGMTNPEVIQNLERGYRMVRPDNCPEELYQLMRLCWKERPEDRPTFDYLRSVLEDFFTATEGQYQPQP
The test is described as follows: Enzymatic activity assay, LCK (h) kinase, [γ-33P]-ATP. As to conditions: 10 μM [γ-33P]-ATP, 40 min, room temperature; read-out: Inhibitory Activity on LCK (h) kinase, IC50. The class given is biochemical. The protocol: as §1
Preparation of Compound Stock Solutions:
as §3
Preparation of Compound Working Solutions:
as §5
Preparation of Different Enzymatic Reaction Solutions:
LCK (h) enzyme was dissolved in a mixture of 50 mM Tris (pH 7.5), 0.1 mM EGTA, 0.1 mM Na3VO4 and 250 μM KVEKIGEGTYGVVYK to prepare an enzyme solution with a final concentration of 45 nM. An Mg/ATP mixture of 10 mM magnesium acetate and 10 μM [γ-^33P]-ATP was used to activate the enzymatic reaction.
as §6

T2 sequence (Q04912 25-1400): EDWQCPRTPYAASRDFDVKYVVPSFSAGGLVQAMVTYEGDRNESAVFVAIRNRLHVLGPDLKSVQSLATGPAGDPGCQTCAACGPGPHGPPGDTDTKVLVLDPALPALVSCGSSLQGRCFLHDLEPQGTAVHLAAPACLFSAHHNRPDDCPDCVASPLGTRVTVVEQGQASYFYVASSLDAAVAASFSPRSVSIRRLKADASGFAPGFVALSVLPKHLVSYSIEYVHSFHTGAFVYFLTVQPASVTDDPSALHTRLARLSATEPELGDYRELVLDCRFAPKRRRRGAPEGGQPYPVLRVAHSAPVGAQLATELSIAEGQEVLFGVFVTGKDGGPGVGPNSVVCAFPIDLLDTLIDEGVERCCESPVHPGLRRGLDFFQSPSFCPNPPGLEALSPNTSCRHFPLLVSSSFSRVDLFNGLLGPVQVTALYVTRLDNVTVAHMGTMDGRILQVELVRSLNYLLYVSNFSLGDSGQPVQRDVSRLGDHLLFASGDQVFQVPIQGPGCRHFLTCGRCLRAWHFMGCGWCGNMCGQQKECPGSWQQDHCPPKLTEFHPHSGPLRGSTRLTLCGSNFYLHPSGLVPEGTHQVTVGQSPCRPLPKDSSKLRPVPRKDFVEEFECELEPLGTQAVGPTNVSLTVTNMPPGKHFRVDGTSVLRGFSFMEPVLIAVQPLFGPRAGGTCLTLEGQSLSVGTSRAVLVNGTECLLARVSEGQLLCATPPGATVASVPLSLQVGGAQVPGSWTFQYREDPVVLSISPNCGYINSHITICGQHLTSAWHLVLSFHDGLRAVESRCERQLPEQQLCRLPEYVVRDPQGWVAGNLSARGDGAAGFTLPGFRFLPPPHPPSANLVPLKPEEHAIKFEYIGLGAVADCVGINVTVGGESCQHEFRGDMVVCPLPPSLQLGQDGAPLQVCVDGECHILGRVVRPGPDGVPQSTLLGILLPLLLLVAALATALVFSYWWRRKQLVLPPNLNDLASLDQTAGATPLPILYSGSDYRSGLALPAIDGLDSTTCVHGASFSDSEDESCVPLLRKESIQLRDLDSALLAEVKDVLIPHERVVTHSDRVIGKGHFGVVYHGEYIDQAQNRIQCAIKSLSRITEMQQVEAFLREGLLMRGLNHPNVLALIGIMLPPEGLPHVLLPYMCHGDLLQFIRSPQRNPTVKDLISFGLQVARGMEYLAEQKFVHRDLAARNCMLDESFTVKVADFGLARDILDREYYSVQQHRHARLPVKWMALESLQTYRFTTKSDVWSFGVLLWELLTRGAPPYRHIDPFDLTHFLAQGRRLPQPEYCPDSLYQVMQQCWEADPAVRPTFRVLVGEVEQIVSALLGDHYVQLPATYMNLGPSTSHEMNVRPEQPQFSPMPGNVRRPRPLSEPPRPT

`Cn1cc(-c2ccc(F)cc2)c(=O)c(C(=O)Nc2ccc(Oc3ccnc(N)c3Cl)cn2)n1` [Compound 33, N-(5-((2-amino-3-chloropyridin-4-yl)oxy)pyridin-2-yl)-5-(4-fluorophenyl)-1-methyl-4-oxo-1,4-dihydropyridazine-3-carboxamide]: the IC50 in test [1] was 0.0033 to 0.01 µM; in test [2], 0.017 µM; in test [3], 0.012 µM; in test [4], 0.026 µM.
Taken in the same sequence, the figures for `CC(C)n1cc(-c2ccc(F)cc2)c(=O)c(C(=O)Nc2ncc(Oc3ccnc(N)c3Cl)cn2)n1` [Compound 12, N-(5-((2-amino-3-chloropyridin-4-yl)oxy)pyrimidin-2-yl)-5-(4-fluorophenyl)-1-isopropyl-4-oxo-1,4-dihydropyridazine-3-carboxamide] were 0.0033 µM, 0.019 µM, 0.023 µM and 0.053 µM.
Consider `Nc1nccc(Oc2cnc(NC(=O)c3nn(C4CC4)cc(-c4ccc(F)cc4)c3=O)nc2)c1Cl` [Compound 18, N-(5-((2-amino-3-chloropyridin-4-yl)oxy)pyrimidin-2-yl)-5-(4-fluorophenyl)-1-cyclopropyl-4-oxo-1,4-dihydropyridazine-3-carboxamide], for which the IC50 is 0.0033 µM in test [1], 0.014 µM in test [2] and 0.008 µM in test [3].
As for `Nc1nccc(Oc2ccc(NC(=O)c3nn(C4CC4)cc(-c4ccc(F)cc4)c3=O)nc2)c1Cl` [Compound 17, N-(5-((2-amino-3-chloropyridin-4-yl)oxy)pyridin-2-yl)-1-cyclopropyl-5-(4-fluorophenyl)-4-oxo-1,4-dihydropyridazine-3-carboxamide], the IC50 in test [1] is under 0.0011 µM; in test [2], 0.007 µM; in test [3], 0.009 µM; in test [4] it was 0.024 µM.
Take `C=CCn1cc(-c2ccc(F)cc2)c(=O)c(C(=O)Nc2ncc(Oc3ccnc(N)c3Cl)cn2)n1` [Compound 37]: the IC50 in test [1] is 0.0011 µM; in test [2] it was 0.012 µM; in test [3], 0.009 µM.
Consider `Nc1nccc(Oc2ccc(NC(=O)c3nn(C4CC4)cc(-c4ccc(F)cc4)c3=O)cn2)c1Cl` [Compound 19, N-(6-((2-amino-3-chloropyridin-4-yl)oxy)pyridin-3-yl)-1-cyclopropyl-5-(4-fluorophenyl)-4-oxo-1,4-dihydropyridazine-3-carboxamide], for which the IC50 in test [1] was 0.0033 to 0.01 µM; in test [2], 0.064 µM; in test [3], 0.012 µM; in test [4], 0.104 µM.
With `CC(C)n1cc(-c2ccc(F)cc2)c(=O)c(C(=O)Nc2ccc(Oc3ccnc(N)c3Cl)nc2)n1` [Compound 13, N-(6-((2-amino-3-chloropyridin-4-yl)oxy)pyridin-3-yl)-5-(4-fluorophenyl)-1-isopropyl-4-oxo-1,4-dihydropyridazine-3-carboxamide], the IC50 in test [1] was 0.0011 to 0.0033 µM; in test [2], 0.016 µM; in test [3], 0.009 µM; in test [4], 0.132 µM.
In the same order, the values of `C=CCn1cc(-c2ccc(F)cc2)c(=O)c(C(=O)Nc2ccc(Oc3ccnc(N)c3Cl)nc2)n1` [Compound 39, 1-allyl-N-(6-((2-amino-3-chloropyridin-4-yl)oxy)pyridin-3-yl)-5-(4-fluorophenyl)-4-oxo-1,4-dihydropyridazine-3-carboxamide] are 0.0011 to 0.0033 µM, 0.012 µM, 0.012 µM and 0.095 µM.
Taken in the same sequence, the figures for `C=CCn1cc(-c2ccc(F)cc2)c(=O)c(C(=O)Nc2ccc(Oc3ccnc(N)c3Cl)cn2)n1` [Compound 35, 1-allyl-N-(5-((2-amino-3-chloropyridin-4-yl)oxy)pyridin-2-yl)-5-(4-fluorophenyl)-4-oxo-1,4-dihydropyridazine-3-carboxamide] were under 0.0011 µM, 0.005 µM, 0.004 µM and 0.02 µM.
Taken in the same sequence, the figures for `CC(C)n1cc(-c2ccc(F)cc2)c(=O)c(C(=O)Nc2ccc(Oc3ccnc(N)c3Cl)cn2)n1` [Compound 11, N-(5-((2-amino-3-chloropyridin-4-yl)oxy)pyridin-2-yl)-5-(4-fluorophenyl)-1-isopropyl-4-oxo-1,4-dihydropyridazine-3-carboxamide] were under 0.0011 µM, 0.002 µM, 0.006 µM and 0.02 µM.
